Test results: patent publication US8383623B2, “Phthalazin-(2H)-one inhibitors of kinases” (Abbott Laboratories, priority 2010, dated 2013)

Target: T1, Cdc7 (BEV coexpressed huCDC7/DBF4) (Homo sapiens, UniProt O00311)
T1 construct: made in house; host or cells: BEV (baculovirus expression vector)
Test: Cdc7 enzyme inhibition assay ([33P]-ATP, biotinylated peptide substrate, FlashPlate)
Assay type: biochemical
Settings: Ki generated from IC50 assuming ATP-competitive inhibition, apparent ATP Km 0.7 μM; 1 μM ATP, 1 hr
Description: This example describes the assays that may be used to identify compounds having kinase activity.
Cdc7 (BEV coexpressed huCDC7/DBF4) is prepared internally. Cdc7 assays are conducted as follows with final concentrations as listed. In 384-well v-bottom polypropylene plates, 6 μL compound (2% DMSO), is mixed with 6 μL of Cdc7 (2 ug/mL), and Jerini peptide substrate A-A11 (biotin-C6linker-TPSDSLIYDDGLS) (2 μM), followed by immediate initiation with 6 μL λ-[^33P]-ATP (1 μM, 20 mCi/μmol) using a reaction buffer comprising 25 mM HEPES, pH 7.5, 1 mM DTT, 10 mM MgCl2, 100 μM Na3VO4, 0.075 mg/ml Triton X-100. Reactions are quenched after 1 hr by the addition of 90 μL stop buffer (50 mM EDTA, 2M NaCl). 85 μL of the stopped reactions are transferred to 384-well streptavidin-coated plates (FlashPlate Plus, Perkin Elmer), incubated 30 minutes at room temperature and washed 3 times with 0.05% Tween-20/PBS using an ELX-405 automated plate washer (BioTek), and counted on a TopCount Scintillation Plate Reader (Packard). IC50 values are determined via non-linear regression fitting of enzyme inhibition data and corresponding Ki values are generated assuming ATP-competitive (equilibrium) inhibition and using the experimentally determined apparent ATP Km of 0.7 μM (as determined using the above assay condition, but varying ATP).
Table 1 depicts enzyme inhibition data (Ki) for exemplary compounds. In Table 1, “A” represents a K, of less than 10 nM, “B” represents a K, of between 10 nM and 100 nM, and “C” represents a Ki of greater than 100 nM.

T1 sequence (O00311 whole entry): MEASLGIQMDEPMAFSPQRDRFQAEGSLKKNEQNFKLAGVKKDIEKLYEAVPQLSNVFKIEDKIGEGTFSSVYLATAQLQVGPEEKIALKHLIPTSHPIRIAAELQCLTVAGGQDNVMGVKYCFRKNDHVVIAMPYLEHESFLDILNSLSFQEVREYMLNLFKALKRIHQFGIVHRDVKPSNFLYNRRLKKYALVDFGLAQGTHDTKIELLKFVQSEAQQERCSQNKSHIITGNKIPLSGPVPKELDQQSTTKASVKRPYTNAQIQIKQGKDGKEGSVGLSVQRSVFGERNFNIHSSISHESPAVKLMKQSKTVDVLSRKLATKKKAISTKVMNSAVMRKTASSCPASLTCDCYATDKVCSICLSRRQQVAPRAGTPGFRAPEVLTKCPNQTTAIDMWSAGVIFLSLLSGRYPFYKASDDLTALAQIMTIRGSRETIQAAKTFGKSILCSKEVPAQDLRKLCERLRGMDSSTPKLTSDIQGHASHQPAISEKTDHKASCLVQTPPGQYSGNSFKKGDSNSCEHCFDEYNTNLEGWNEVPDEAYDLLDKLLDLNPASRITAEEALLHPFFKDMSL
T1 sequence (Q9UBU7 whole entry partner): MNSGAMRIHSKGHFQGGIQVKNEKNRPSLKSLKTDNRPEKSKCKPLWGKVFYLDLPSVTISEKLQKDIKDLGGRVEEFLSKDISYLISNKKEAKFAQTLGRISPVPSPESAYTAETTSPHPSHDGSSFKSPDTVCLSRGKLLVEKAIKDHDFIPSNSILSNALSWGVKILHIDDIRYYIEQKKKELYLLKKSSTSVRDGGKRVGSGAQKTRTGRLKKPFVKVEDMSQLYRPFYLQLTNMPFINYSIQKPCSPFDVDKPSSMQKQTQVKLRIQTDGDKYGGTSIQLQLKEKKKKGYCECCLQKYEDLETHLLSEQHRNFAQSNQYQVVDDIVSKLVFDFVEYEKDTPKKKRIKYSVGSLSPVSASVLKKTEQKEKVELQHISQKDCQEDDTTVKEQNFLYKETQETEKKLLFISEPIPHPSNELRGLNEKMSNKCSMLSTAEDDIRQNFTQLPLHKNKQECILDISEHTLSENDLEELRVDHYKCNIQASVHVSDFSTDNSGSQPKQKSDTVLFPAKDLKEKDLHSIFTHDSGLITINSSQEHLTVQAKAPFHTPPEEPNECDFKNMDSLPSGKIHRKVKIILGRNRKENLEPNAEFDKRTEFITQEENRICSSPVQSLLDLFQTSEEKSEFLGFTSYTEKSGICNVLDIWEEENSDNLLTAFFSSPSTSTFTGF

Compound	Ki
4-(2,5-dichlorobenzyl)-6-(1H-pyrrolo[2,3-b]pyridin-3-yl)phthalazin-1(2H)-one [Example 6]	> 100 nM
O=c1[nH]nc(Cc2ccccc2)c2cc(-c3ccncc3)ccc12 [Example 2, 4-benzyl-6-(pyridin-4-yl)phthalazin-1(2H)-one]	> 100 nM
O=c1[nH]nc(Cc2cccnc2)c2cc(-c3c[nH]c4ncccc34)ccc12 [Example 8, 4-(pyridin-3-ylmethyl)-6-(1H-pyrrolo[2,3-b]pyridin-3-yl)phthalazin-1(2H)-one]	< 10 nM
O=c1[nH]nc(CC2CCCCN2)c2cc(-c3c[nH]c4ncccc34)ccc12 (stereo not shown) [Example 10, 4-(piperidin-2-ylmethyl)-6-(1H-pyrrolo[2,3-b]pyridin-3-yl)phthalazin-1(2H)-one]	> 100 nM
CC(=O)Nc1ccc(Cc2n[nH]c(=O)c3ccc(-c4c[nH]c5ncccc45)cc23)cc1 [Example 12, N-(4-{[4-oxo-7-(1H-pyrrolo[2,3-b]pyridin-3-yl)-3,4-dihydrophthalazin-1-yl]methyl}phenyl)acetamide]	< 10 nM
Cn1ccc(Cc2n[nH]c(=O)c3ccc(-c4c[nH]c5ncccc45)cc23)n1 [Example 13, 4-[(1-methyl-1H-pyrazol-3-yl)methyl]-6-(1H-pyrrolo [2,3-b]pyridin-3-yl)phthalazin-1(2H)-one]	10 to 100 nM

The next lines start with the values.

Ki	Compound
< 10 nM	O=c1[nH]nc(Cc2ccccc2)c2cc(-c3c[nH]c4ncccc34)ccc12 [Example 1, 4-benzyl-6-(1H-pyrrolo[2,3-b]pyridin-3-yl)phthalazin-1(2H)-one]
10 to 100 nM	O=c1[nH]nc(Cc2ccccc2)c2cc(-c3cn[nH]c3)ccc12 [Example 3, 4-benzyl-6-(1H-pyrazol-4-yl)phthalazin-1(2H)-one]
> 100 nM	O=c1[nH]nc(Cc2ccccc2)c2cc(-c3cccnc3)ccc12 [Example 4, 4-benzyl-6-(pyridin-3-yl)phthalazin-1(2H)-one]
< 10 nM	O=c1[nH]nc(Cc2ccncc2)c2cc(-c3c[nH]c4ncccc34)ccc12 [Example 5, 4-(pyridin-4-ylmethyl)-6-(1H-pyrrolo[2,3-b]pyridin-3-yl)phthalazin-1(2H)-one]
> 100 nM	O=c1[nH]nc(CC2CCCNC2)c2cc(-c3c[nH]c4ncccc34)ccc12 (stereo not shown) [Example 7, 4-(piperidin-3-ylmethyl)-6-(1H-pyrrolo[2,3-b]pyridin-3-yl)phthalazin-1(2H)-one]
10 to 100 nM	O=c1[nH]nc(CC2CCNCC2)c2cc(-c3c[nH]c4ncccc34)ccc12 [Example 9, 4-(piperidin-4-ylmethyl)-6-(1H-pyrrolo[2,3-b]pyridin-3-yl)phthalazin-1(2H)-one]
10 to 100 nM	CN(C)c1ccc(Cc2n[nH]c(=O)c3ccc(-c4c[nH]c5ncccc45)cc23)cc1 [Example 11, 4-[4-(dimethylamino)benzyl]-6-(1H-pyrrolo[2,3-b]pyridin-3-yl)phthalazin-1(2H)-one]
